Measurements published in patent publication US11976083B2, “Inhibitors of peptidylarginine deiminases” (Gilead Sciences, Inc., priority 2020, dated 2024).

What follows are molecules tested against T1, human PAD4 (Homo sapiens, UniProt Q9UM07) (assay: In vitro PAD4 BAEE biochemical assay). Details: BAEE substrate 3 mM, 5 nM PAD4, 2 mM calcium chloride; geometric mean of multiple experiments.
T1 construct: human PAD4 (NM_012387), A2-P663, was PCR amplified; His-SUMO (N, cleaved yes); made in house; host or cells: E. coli BL21(DE3)
T1 sequence (Q9UM07 2-663): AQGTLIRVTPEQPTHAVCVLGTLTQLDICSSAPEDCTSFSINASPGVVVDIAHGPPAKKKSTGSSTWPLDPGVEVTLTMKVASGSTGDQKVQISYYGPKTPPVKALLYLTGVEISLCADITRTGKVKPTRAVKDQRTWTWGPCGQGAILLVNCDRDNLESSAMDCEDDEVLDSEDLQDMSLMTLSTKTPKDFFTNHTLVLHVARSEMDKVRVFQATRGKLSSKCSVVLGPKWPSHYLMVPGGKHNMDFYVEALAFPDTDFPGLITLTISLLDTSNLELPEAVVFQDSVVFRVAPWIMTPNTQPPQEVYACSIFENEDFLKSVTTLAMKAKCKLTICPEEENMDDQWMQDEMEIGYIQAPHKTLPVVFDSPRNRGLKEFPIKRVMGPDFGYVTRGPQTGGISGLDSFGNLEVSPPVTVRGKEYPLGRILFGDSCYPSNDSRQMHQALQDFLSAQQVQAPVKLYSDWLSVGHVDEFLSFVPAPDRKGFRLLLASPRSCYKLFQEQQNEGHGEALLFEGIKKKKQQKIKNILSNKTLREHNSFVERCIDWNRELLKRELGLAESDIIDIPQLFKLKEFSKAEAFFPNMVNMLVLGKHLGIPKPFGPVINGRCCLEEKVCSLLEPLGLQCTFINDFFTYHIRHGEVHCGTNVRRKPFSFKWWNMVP
Excerpt: In Vitro PAD4 BAEE Biochemical Assay
The enzymatic activity of human PAD4 was monitored in a biochemical assay in the presence or absence of compounds using the small peptidyl arginine mimic BAEE (Na-Benzoyl-L-arginine ethyl ester hydrochloride) as substrate. PAD4 activity led to deimination of BAEE and release of ammonia. Levels of ammonia were monitored by using an amine coupling reaction and were indicative of PAD4 enzymatic activity.
One hundred nanoliters of test compounds dissolved in DMSO at various concentrations were dispensed into a 384-well black OptiPlate using a Labcyte Echo instrument. Ten microliters of a solution of recombinant PAD4 and calcium chloride diluted in PAD4 assay buffer (50 mM MOPS [3-(N-morpholino) propanesulfonic acid], pH 7.6; 50 mM sodium chloride; 0.05% Tween-20; 2 mM dithiothreitol) was added to the compound-containing plate and was incubated for 30 minutes at 25° C. Ten microliters of a solution of BAEE (Sigma-Aldrich #B4500) diluted in PAD4 assay buffer was then added to start the reaction. Final concentrations were 5 nM PAD4, 2 mM calcium chloride, and 3 mM BAEE. The reaction mixture was incubated at 25° C. for 2 hours and was stopped with the addition of 10 microliters of a solution of 75 mM EDTA (Ethylenediaminetetraacetic acid) in PAD4 assay buffer. Thirty microliters of detection solution (5 mM o-phthalaldehyde, 50 mM MOPS [3-(N-morpholino) propanesulfonic acid], pH 7.6; 50 mM sodium chloride; 0.05% Tween-20; 5 mM dithiothreitol) was then added and the reaction was incubated for 1 hour at 25° C. The level of fluorescent thiol-substituted isoindole resulting from the reaction of ammonia, o-phthalaldehyde, and dithiothreitol was measured on an Envision plate reader (PerkinElmer) with 405 nm excitation and 535 nm emission.
Data were normalized based on maximum inhibition (50 micromolar of the covalent PAD inhibitor BB-Cl-Amidine (Bicker, K. L.; Anguish, L.; Chumanevich, A. A.; Cameron, M. D.; Cui, X.; Witalison, E.; Subramanian, V.; Zhang, X.; Chumanevich, A. P.; Hofseth, L. J.; Coonrod, S. A.; Thompson, P. R. ACS Med. Chem. Lett. 2012, 3, 1081-1085). and no inhibition (DMSO) controls. Least squares curve fittings were performed using a four-parameter variable slope nonlinear regression model. IC50 is defined as the concentration of compound required to inhibit 50% of maximum activity. IC50 values from multiple experiments were averaged by geometric mean and the standard deviation was calculated.

IC50	Structure (SMILES)
38 nM	COc1cc(C(=O)N[C@H]2CNCC[C@@H]2F)cc2nc(-c3cc4ccc5nc4n3C/C=C(/F)COCCC(=O)N[C@@H]5C)n(C)c12 [Example 619, 2-[(3~{E},11~{R})-4-fluoro-11-methyl-9-oxo-6-oxa-1,10,19-triazatricyclo[10.5.2.0^ {15,18}]nonadeca-3,12(19),13,15(18), 16-pentaen-17-yl]- ~{N}-[(3~{S},4~{S})-4-fluoro-3-piperidyl]-7-methoxy-1-methyl-benzimidazole-5-carboxamide]
231 nM	COc1cc(C(=O)N2CC[C@@H](OC)[C@@H](N)C2)cc2nc(-c3cc4ccc5nc4n3CCCCC[C@H]3C[C@]3(C)C(=O)N[C@@H]5C)n(C)c12 [Example 175]
47 nM	COc1cc(C(=O)N2CCC[C@@H](N)C2)cc2nc(-c3cc4ccc5nc4n3CCCCCCCN(C)C(=O)N[C@@H]5C)c(C)n12 [Example 146, (12~{R})-18-[7-[(3~{R})-3-aminopiperidine-1-carbonyl]-5-methoxy-3-methyl-imidazo[1,2-a]pyridin-2-yl]-9,12-dimethyl-1,9,11,20-tetrazatricyclo[11.5.2.0^{16,19}]icosa-13(20),14,16(19),17-tetraen-10-one]
38 nM	COc1cc(C(=O)N2CC[C@@H](OC)[C@@H](N)C2)cc2nc(-c3cc4ccc5nc4n3CCCC(F)(F)C[C@H]3C[C@H]3C(=O)N[C@@H]5C)n(C)c12 [Example 859, (2~{R},5~{R},7~{R})-14-[5-[(3~{S},4~{R})-3-amino-4-methoxy-piperidine-1-carbonyl]-7-methoxy-1-methyl-benzimidazol-2-yl]-9,9-difluoro-2-methyl-3,13,19-triazatetracyclo [11.5.2.0^{5,7}.0^{16,20}] icosa-1(19),14,16(20),17-tetraen-4-one]
31 nM	C[C@H]1NC(=O)[C@@H]2C[C@H]2CCCCCn2c(-c3nc4cc(C(=O)N5[C@H]6CC[C@@H]5[C@H](N)C6)c(F)cc4n3C3CC3)cc3ccc1nc32 [Example 557, (2~{R},5~{R},7~{R})-14-[5-[(1~{R},2~{R},4~ {S})-2-amino-7-azabicyclo [2.2.1]heptane-7-carbonyl]-1-cyclopropyl-6-fluoro-benzimidazol-2-yl]-2-methyl-3,13,19-triazatetracyclo[11.5.2.0^ {5,7}.0^{16,20}] icosa-1(19),14,16(20), 17-tetraen-4-one]
136 nM	COc1cc(C(=O)N2CC[C@H]3OCCN[C@H]3C2)cc2nc(-c3cc4ccc5cc4n3CCCCCCC3(CC3)C(=O)N[C@@H]5C)n(C)c12 [Example 208, (11~{R})-17-[5-[(4~{a}-{S},8~{a}~{R})-2,3,4,4~{a},5,7,8,8~{a}-octahydropyrido[4,3-b][1,4]oxazine-6-carbonyl]-7-methoxy-1-methyl-benzimidazol-2-yl]-11-methyl-spiro[1,10-diazatricyclo[10.5.2.0^{15,18}]nonadeca-12(19),13,15(18),16-tetraene-8,1′-cyclopropane]-9-one]
85 nM	COc1cc(C(=O)N2CCC[C@@H](N)C2)cc2nc(-c3cc4ccc5nc4n3CCCCCOC(C)(C)C(=O)N[C@@H]5C)n(C)c12 [Example 18, (11~{R})-17-[5-[(3~{R})-3-aminopiperidine-1-carbonyl]-7-methoxy-1-methyl-benzimidazol-2-yl]-8,8,11-trimethyl-7-oxa-1,10,19-triazatricyclo[10.5.2.0^{15,18}]nonadeca-12(19),13,15(18),16-tetraen-9-one]
134 nM	C[C@H]1NC(=O)[C@@](F)(c2cccc(Cl)n2)CCCCCCn2c(-c3nc4cc(C(=O)N5C[C@H](N)[C@@H]6CC[C@H]5C6)cc(F)c4n3C3CC3)cc3ccc1nc32 [Example 480, (8~{S},11~{R})-17-[5-[(1~{S},4~{R},5~{R})-4-amino-2-azabicyclo[3.2.1]octane-2-carbonyl]-1-cyclopropyl-7-fluoro-benzimidazol-2-yl]-8-(6-chloro-2-pyridyl)-8-fluoro-11-methyl-1,10,19-triazatricyclo[10.5.2.0^{15,18}]nonadeca-12(19),13,15(18),16-tetraen-9-one]
24 nM	COc1cc(C(=O)N2CCC[C@@H](N)[C@H]2C)cc2nc(-c3cc4ccc5nc4n3CCCCCc3nc4ccsc4cc3C(=O)N[C@@H]5C)n(C)c12 [Example 793, (2~{R})-20-[5-[(2~{R},3~{R})-3-amino-2-methyl-piperidine-1-carbonyl]-7-methoxy-1-methyl-benzimidazol-2-yl]-2-methyl-8-thia-3,12,19,25-tetrazapentacyclo[17.5.2.0^ {5,13}.0^{7,11}.0^{22,26}] hexacosa-1(24),5(13),6,9, 11,20,22,25-octaen-4-one]
93 nM	COc1cc(C(=O)N2CC[C@@H](OC)[C@@H](N)C2)cc2nc(-c3cc4ccc5nc4n3CC(F)(F)CCCC[C@@](C)(C(F)(F)F)C(=O)N[C@@H]5C)n(C)c12 [Example 727, (8~{R},11~{R})-17-[5-[(3~{S), 4~{R})-3-amino-4-methoxy-piperidine-1-carbonyl]-7-methoxy-1-methyl-benzimidazol-2-yl]-3,3-difluoro-8,11-dimethyl-8-(trifluoromethyl)-1,10,19-triazatricyclo[10.5.2.0^ {15,18}]nonadeca-12(19),13,15(18),16-tetraen-9-one]
54 nM	COc1cc(C(=O)N2[C@H]3CC[C@@H]2[C@H](N)C3)cc2nc(-c3cc4ccc5nc4n3CCCCn3nccc3C(=O)N[C@@H]5C)c(C)n12 [Example 34, (2~{R})-15-[7-[(1~{R},2~{R},4~{S})-2-amino-7-azabicyclo[2.2.1]heptane-7-carbonyl]-5-methoxy-3-methyl-imidazo[1,2-a]pyridin-2-yl]-2-methyl-3,8,9,14,20-pentazatetracyclo[12.5.2.0^{5,9}.0^{17,21}] henicosa-1(20),5,7,15,17(21),18-hexaen-4-one]
34 nM	COc1cc(C(=O)N[C@H]2CNCC[C@@H]2F)cc2nc(-c3cc4ccc5nc4n3CCCCC[C@H]3[C@H](C(=O)N[C@@H]5C)C3(F)F)n(C)c12 [Example 368, 2-[(2~{R},5~{R},7~{S})-6,6-difluoro-2-methyl-4-oxo-3,13,19-triazatetracyclo[11.5.2.0^{5,7}.0^{16,20}]icosa-1(19),14,16(20),17-tetraen-14-yl]- ~{N}-[(3~{S},4~{S})-4-fluoro-3-piperidyl]-7-methoxy-1-methyl-benzimidazole-5-carboxamide]
83 nM	COc1cc(C(=O)N2[C@H]3CC[C@@H]2[C@H](N)C3)cc2nc(-c3cc4ccc5nc4n3CCCCCCC(=O)Nc3ccccc3-5)n(C)c12 [Example 87, 17-[5-[(1~{R},2~{R},4~{S})-2-amino-7-azabicyclo[2.2.1]heptane-7-carbonyl]-7-methoxy-1-methyl-benzimidazol-2-yl]-8,16,22-triazatetracyclo[14.5.2.0^{2,7}.0^{19,23}] tricosa-1(22),2,4,6,17,19(23),20-heptaen-9-one]
91 nM	COc1cc(C(=O)N2CCC[C@@H](N)C2)cc2nc(-c3cc4ccc5nc4n3C[C@@H]3C[C@H]3C(OC)CCCC(=O)N[C@@H]5C)n(C)c12 (stereo partly shown) [Example 264, (3~{R},5~{R},12~{R})-18-[5-[(3~{R})-3-aminopiperidine-1-carbonyl]-7-methoxy-1-methyl-benzimidazol-2-yl]-6-methoxy-12-methyl-1,11,20-triazatetracyclo[11.5.2.0^{3,5}.0^{16,19}] icosa-13(20),14,16(19),17-tetraen-10-one]
104 nM	COc1cc(C(=O)N2CCC[C@@H](N)C2)cc2nc(-c3cc4ccc5nc4n3C[C@@H]3C[C@H]3CCCC(C)(C)C(=O)N[C@@H]5C)n(C)c12 [Example 274, (3˜{R},5˜{R},12˜{R})-18-[5-[(3˜{R})-3-aminopiperidine-1-carbonyl]-7-methoxy-1-methyl-benzimidazol-2-yl]-9,9,12-trimethyl-1,11,20-triazatetracyclo[11.5.2.0^{3,5}.0^{16,19}]icosa-13(20),14,16(19),17-tetraen-10-one]
158 nM	COc1cc(C(=O)N2[C@H]3CC[C@@H]2[C@H](N)C3)cc2nc(-c3cc4ccc5nc4n3C[C@H]3C[C@H]3CC[C@H]3C[C@@H]3C(=O)N[C@@H]5C)n(C)c12 [Example 143, (3~{S),5~{R},8~{S},10~{S},13~{R})-19-[5-[(1~{R},2~{R},4~{S})-2-amino-7-azabicyclo[2.2.1]heptane-7-carbonyl]-7-methoxy-1-methyl-benzimidazol-2-yl]-13-methyl-1,12,21-triazapentacyclo[12.5.2.0^{3,5}.0^{8,10}.0^ {17,20}]henicosa-14(21),15,17(20),18-tetraen-11-one]
